Tests used:
[1] = system: Wistar rats; experiment: In vivo oxidation of [U-14C]palmitate (exhaled 14CO2); design: species or system rat; conditions: 30 mg/kg s.c.
Experimental: Compound (Ia) was tested in normal Wistar rats by two different methods to assess in vivo a) direct effects on fatty acid oxidation by following the conversion of [^14C]-labeled palmitate to ^14CO2 exhaled by the animals and b) effects on total lipid utilization as determined by indirect calorimetry.
a) In vivo oxidation of [U-^14C]palmitate. Male Wistar rats (240-360 g) were given chow food ad libitum. The day before the experiment each animal was singly caged and food was withdrawn 2.5 hours before the experiment. The animals were given [U-^14C]palmitate (5 μCi) dissolved in 500 μl of olive oil by gavage and compound (Ia) (30 mg/kg) or saline (vehicle) by subcutaneous injection. Immediately after receiving [U-^14C]palmitate and compound (Ia) or vehicle, the animals were kept singly in a metabolic chamber during six hours. The chamber was set up to allow quantive recovery of ^14CO2 exhaled by the animals. The chamber consisted of a desiccator with an elevated platform for the rat, an inlet for air at the bottom wall of the vessel. The flow of the air-exchange was controlled by a flow meter connected to a vacuum pump and set to 50 litres/hour. The temperature inside the chamber was kept at 22° C. Exhaled ^14CO2 from the animals was absorbed by a flask containing 500 ml of Carbosorb E (Canberra Packard).

[2] = system: Wistar rats; experiment: Lipid utilization by indirect calorimetry; type: in vivo, rat
Source text: b) Indirect calorimetry. Substrate utilization can be measured indirectly from respiratory gas exchanges. The method is based on the measurement of oxygen (O2) consumption and carbon-dioxide (CO2) release, both originating from the oxidation of the energetic substrates that progressively release the chemical energy stored in the carbon-hydrogen bonds of carbohydrates, lipids (and proteins). The amounts of carbohydrate and lipid being oxidized in the body at any given time can be calculated from the volumes of 02 consumption and CO2 exhalation by laboratory animals (and humans) in metabolic chambers. For a review of the methodology and the theoretical basis of indirect calorimetry, see Ferrannini, Metabolism, 37, 287-301, 1988.
An established, commercially available metabolic chamber apparatus (Oxymax, columbus Instruments, Ohio) was used to determine the gas exchange of vehicle-treated and compound (Ia)-treated Wistar rats in order to make precise and noninvasive measurements of the changes in the nature of the energetic substrate being oxidized by Wistar rats. Table 5 summarizes the data of the calculated lipid utilization determined for animals treated with two doses of compound (Ia), 10 and 30 mg/kg, administered subcutaneously 30 min. before starting the gas exchange measurements.

[3] = system: differentiated L6 cells; experiment: Fatty acid (palmitate) oxidation assay with differentiated rat L6 muscle cells;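 also: differentiated rat L6 myotubes fed [14C]-palmitate, with oxidation read as 14CO2 trapped on filters and counted by liquid scintillation after 3 to 8 h at 37 °C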
Experimental: Labeling medium to assay oxidation of fatty acids was composed of glucose-deficient DMEM containing 3.7 g/l NaHCO3, 25 mM HEPES-NaOH, 0.5% fatty acid-free bovine serum albumin (BSA), 0.1% ethanol, 0.5% DMSO (or test compounds dissolved in DMSO), 5 mM D-glucose, and 16 μM unlabeled palmitate plus 0.25 μM [U-^14C]palmitate (approx. 800 mCi/mmol). After the addition of labeling medium, the cell culture plates were sealed air tight with self adhesive Super Sealing Film (Life Systems Design, #02-2796-3001). Before sealing, twelve 1 cm^2 squares of filter paper (Schleicher & Schuell, #GB004) pretreated with 50 μl of highly basic tissue solubilizer solution NCSII (Amersham Pharmacia, #NNCS-502) were attached to the lower side of the sealing film. Upon sealing of the tissue culture plates, the filters were positioned in the center above each well, and served to capture the evolving ^14CO2 that was produced by the cells in each individual well. After an incubation between 3 to 8 hours at 37° C., the filters were removed from the sealing film and the captured ^14CO2 was quantitated by liquid scintillation counting with 2 ml of scintillation cocktail BCS-NA (Amersham Pharmacia, #NBCS204) in a Tri-Carb liquid scintillation counter (Canberra Packard).
Cultivation of the differentiating rat muscle cell line L6 for fatty acid oxidation assays was performed as follows. For routine passaging, L6 cells (ATCC) were grown in T75 flasks in 15 ml of MEM Alpha medium (Gibco BRL Life Technologies, #22571-038), containing 10% heat inactivated FBS and 1% antibiotic/antimycotic solution (Gibco BRL Life Technologies, #15240-062). Incubation was done at 37° C. in a humid atmosphere containing 5% CO2. The cells were passaged twice per week by trypsinization.
For fatty acid oxidation assays, each well of a 12-well tissue culture plate was seeded with 2 to 5×10^4 cells in 1 ml of MEM Alpha, 10% FBS, 1% antibiotic/antimycotic solution. After 3 days, medium was exchanged by 1 ml of the same, fresh medium. After 5 days, medium was exchanged again, this time by 1 ml of medium containing 2% FBS, 1% antibiotic/antimycotic solution. After 7 days, the cells were fully differentiated and formed large multinucleated myotubes. At this stage, the medium was replaced by 1 ml of glucose-deficient DMEM supplemented with 3.7 g/l NaHCO3 and 25 mM HEPES-NaOH followed by a starvation period of 2 to 6 hours at 37° C. […] The compounds were tested at three different concentrations (2, 0.2 and 0.02 μM) on differentiated L6 cells.

[4] = L6, repeated test Table 3, 0.002 μM
[5] = L6, repeated test Table 3, 0.02 μM
[6] = L6, repeated test Table 3, 0.2 μM

## CO[C@H]1CCCC[C@@H](c2ccccc2)OC(=O)[C@@H](C)C2(O)O[C@H]([C@@H](C)[C@H](O)[C@H]2OC)[C@@H](C)/C=C/[C@H]1OC [Cpd (Ia), Soraphen A 1-α]
[1]
  Duration of effect (entire assessment period): 6 h
  Time after administration at which the effect is apparent: approx. 60 min
[1]; 5 min
  % increase over vehicle: −15%
  Accumulated 14CO2 exhaled: 133 +/− 41 cpm
[1]; 15 min
  % increase over vehicle: −30%
  Accumulated 14CO2 exhaled: 121 +/− 36 cpm
[1]; 30 min
  % increase over vehicle: 17%
  Accumulated 14CO2 exhaled: 211 +/− 32 cpm
[1]; 60 min
  % increase over vehicle: 41%
  Accumulated 14CO2 exhaled: 544 +/− 102 cpm
[1]; 90 min
  % increase over vehicle: 40%
  Accumulated 14CO2 exhaled: 1440 +/− 90 cpm
[1]; 120 min
  % increase over vehicle: 56%
  Accumulated 14CO2 exhaled: 2614 +/− 136 cpm
[1]; 150 min
  % increase over vehicle: 62%
  Accumulated 14CO2 exhaled: 4333 +/− 235 cpm
[1]; 180 min
  % increase over vehicle: 51%
  Accumulated 14CO2 exhaled: 5729 +/− 397 cpm
[1]; 240 min
  % increase over vehicle: 56%
  Accumulated 14CO2 exhaled: 9572 +/− 809 cpm
[1]; 300 min
  % increase over vehicle: 77%
  Accumulated 14CO2 exhaled: 13261 +/− 1.445 cpm
[1]; 360 min
  % increase over vehicle: 60%
  Accumulated 14CO2 exhaled: 16134 +/− 2.130 cpm
[2]; 10 mg/kg s.c., 33.5 min
  % increase over vehicle: 12.6%
  Accumulated lipid utilization: 0.24 g/kg body weight
[2]; 10 mg/kg s.c., 67 min
  % increase over vehicle: 9.6%
  Accumulated lipid utilization: 0.49 g/kg body weight
[2]; 10 mg/kg s.c., 100.5 min
  % increase over vehicle: 9.8%
  Accumulated lipid utilization: 0.76 g/kg body weight
[2]; 10 mg/kg s.c., 134 min
  % increase over vehicle: 9.8%
  Accumulated lipid utilization: 1.03 g/kg body weight
[2]; 10 mg/kg s.c., 167.5 min
  % increase over vehicle: 9.2%
  Accumulated lipid utilization: 1.31 g/kg body weight
[2]; 10 mg/kg s.c., 201 min
  % increase over vehicle: 8.4%
  Accumulated lipid utilization: 1.61 g/kg body weight
[2]; 10 mg/kg s.c., 234.5 min
  % increase over vehicle: 7.8%
  Accumulated lipid utilization: 1.89 g/kg body weight
[2]; 10 mg/kg s.c., 268 min
  % increase over vehicle: 7.9%
  Accumulated lipid utilization: 2.17 g/kg body weight
[2]; 10 mg/kg s.c., 301.5 min
  % increase over vehicle: 7.7%
  Accumulated lipid utilization: 2.44 g/kg body weight
[2]; 10 mg/kg s.c., 335 min
  % increase over vehicle: 7.2%
  Accumulated lipid utilization: 2.73 g/kg body weight
[2]; 10 mg/kg s.c., 368.5 min
  % increase over vehicle: 6.3%
  Accumulated lipid utilization: 3.03 g/kg body weight
[2]; 30 mg/kg s.c., 33.5 min
  % increase over vehicle: 28.4%
  Accumulated lipid utilization: 0.27 g/kg body weight
[2]; 30 mg/kg s.c., 67 min
  % increase over vehicle: 19.2%
  Accumulated lipid utilization: 0.54 g/kg body weight
[2]; 30 mg/kg s.c., 100.5 min
  % increase over vehicle: 14.5%
  Accumulated lipid utilization: 0.79 g/kg body weight
[2]; 30 mg/kg s.c., 134 min
  % increase over vehicle: 13.2%
  Accumulated lipid utilization: 1.06 g/kg body weight
[2]; 30 mg/kg s.c., 167.5 min
  % increase over vehicle: 12.5%
  Accumulated lipid utilization: 1.35 g/kg body weight
[2]; 30 mg/kg s.c., 201 min
  % increase over vehicle: 11.8%
  Accumulated lipid utilization: 1.66 g/kg body weight
[2]; 30 mg/kg s.c., 234.5 min
  % increase over vehicle: 11.7%
  Accumulated lipid utilization: 1.96 g/kg body weight
[2]; 30 mg/kg s.c., 268 min
  % increase over vehicle: 12.2%
  Accumulated lipid utilization: 2.26 g/kg body weight
[2]; 30 mg/kg s.c., 301.5 min
  % increase over vehicle: 12.5%
  Accumulated lipid utilization: 2.55 g/kg body weight
[2]; 30 mg/kg s.c., 335 min
  % increase over vehicle: 12.3%
  Accumulated lipid utilization: 2.86 g/kg body weight
[2]; 30 mg/kg s.c., 368.5 min
  % increase over vehicle: 11.5%
  Accumulated lipid utilization: 3.18 g/kg body weight
[2]; 10 and 30 mg/kg s.c.
  Duration of effect on lipid oxidation: at least 6 hours
[3]; L6, Table 2, 0.02 μM
  Fold stimulation: 1.8 fold
  Palmitate oxidation rate: 16.4 +/− 1.0 pmol · h^−1 · well^−1
[3]; L6, Table 2, 0.2 μM
  Fold stimulation: 1.8 fold
  Palmitate oxidation rate: 15.8 +/− 0.5 pmol · h^−1 · well^−1
[3]; L6, Table 2, 2 μM
  Fold stimulation: 1.7 fold
  Palmitate oxidation rate: 14.9 +/− 0.4 pmol · h^−1 · well^−1
[3]; [4]
  Fold stimulation: 1.5 fold
  Palmitate oxidation rate: 8.3 +/− 0.0 pmol · h^−1 · well^−1
[3]; [5]
  Fold stimulation: 2.2 fold
  Palmitate oxidation rate: 12.1 +/− 1.0 pmol · h^−1 · well^−1
[3]; [6]
  Fold stimulation: 2.7 fold
  Palmitate oxidation rate: 14.6 +/− 0.1 pmol · h^−1 · well^−1
[3]; Rattus norvegicus, L6, read-out: EC50 for stimulation of palmitate oxidation
  EC50: 2 to 20 nM
